Measurements as given in US12624004B2 (Fudan University, priority 2019, dated 2026).

Test system: Female mice
Assay: In vivo hot plate method analgesia test
Procedure, shortened: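 Female mice (~20 g) on a 55° C hot plate, hindpaw response latency as pain threshold (pre-screen 5–30 s, 60 s cut-off). Latencies at 15, 30, 60 and 120 min after intraperitoneal dosing. %MPE = (post−pre latency)/(60−pre)×100, ED50 derived from %MPE.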

Q: With `COc1cccc(C2(O)CCCCC2CN(C)C)c1` (stereo not shown) [Tramadol, reference compound] as the compound, how does the “analgesic effect” value (Table 1-2, hot plate, 5 mg/kg dose) read?
A: no analgesic effect

Q: And the “Maximum percentage effective analgesic (% MPE)” value (Table 1-2, hot plate, 50 mg/kg dose)?
A: 64.5%

Q: What about the “analgesic effect” value (Table 2-2, hot plate, at 5 mg/kg or 50 mg/kg dose) of the same compound?
A: no analgesic effect

Q: What about the “% MPE” value (Table 2-2, hot plate, tramadol, dose of this value not clearly printed) of the same compound?
A: 64.5%

Q: And the “analgesic effect” value (Table 3-2, hot plate, @10 mg/kg)?
A: no effective

Q: And the “% MPE” value (Table 3-2, hot plate, @50 mg/kg)?
A: 64.5%

Q: And the “analgesic effect” value (Table 4-2, hot plate, 10 mg/kg dose)?
A: no analgesic effect

Q: What about the “% MPE” value (Table 4-2, hot plate, 50 mg/kg dose) of the same compound?
A: 64.5%

Q: And the “analgesic effect” value (Table 5-2, hot plate, 10 mg/kg dose)?
A: no analgesic effect

Q: What about the “Maximum percentage effective analgesia (% MPE)” value (Table 5-2, hot plate, 50 mg/kg dose) of the same compound?
A: 64.5%
